According to patent US10077261B2, “Imidazolin-5-one derivative useful as FASN inhibitors for the treatment of cancer” (Janssen Pharmaceutica NV, priority 2012, dated 2018):

Tests used:
[1] = target: T1, hFASN enzyme (full length) (Homo sapiens, UniProt P49327); assay: Fatty Acid Synthase (FASN) inhibition scintillation proximity assay; assay type: biochemical; conditions: for inhibition at 10 µM: read-out: Human FASN % inhibition @ 10 μM, 10 μM test compound; for IC50: read-out: Human FASN pIC50 (converted)
T1 construct: 10 μL hFASN enzyme (full length, 300 ng, purified in house); made in house
T1 sequence (P49327 whole entry): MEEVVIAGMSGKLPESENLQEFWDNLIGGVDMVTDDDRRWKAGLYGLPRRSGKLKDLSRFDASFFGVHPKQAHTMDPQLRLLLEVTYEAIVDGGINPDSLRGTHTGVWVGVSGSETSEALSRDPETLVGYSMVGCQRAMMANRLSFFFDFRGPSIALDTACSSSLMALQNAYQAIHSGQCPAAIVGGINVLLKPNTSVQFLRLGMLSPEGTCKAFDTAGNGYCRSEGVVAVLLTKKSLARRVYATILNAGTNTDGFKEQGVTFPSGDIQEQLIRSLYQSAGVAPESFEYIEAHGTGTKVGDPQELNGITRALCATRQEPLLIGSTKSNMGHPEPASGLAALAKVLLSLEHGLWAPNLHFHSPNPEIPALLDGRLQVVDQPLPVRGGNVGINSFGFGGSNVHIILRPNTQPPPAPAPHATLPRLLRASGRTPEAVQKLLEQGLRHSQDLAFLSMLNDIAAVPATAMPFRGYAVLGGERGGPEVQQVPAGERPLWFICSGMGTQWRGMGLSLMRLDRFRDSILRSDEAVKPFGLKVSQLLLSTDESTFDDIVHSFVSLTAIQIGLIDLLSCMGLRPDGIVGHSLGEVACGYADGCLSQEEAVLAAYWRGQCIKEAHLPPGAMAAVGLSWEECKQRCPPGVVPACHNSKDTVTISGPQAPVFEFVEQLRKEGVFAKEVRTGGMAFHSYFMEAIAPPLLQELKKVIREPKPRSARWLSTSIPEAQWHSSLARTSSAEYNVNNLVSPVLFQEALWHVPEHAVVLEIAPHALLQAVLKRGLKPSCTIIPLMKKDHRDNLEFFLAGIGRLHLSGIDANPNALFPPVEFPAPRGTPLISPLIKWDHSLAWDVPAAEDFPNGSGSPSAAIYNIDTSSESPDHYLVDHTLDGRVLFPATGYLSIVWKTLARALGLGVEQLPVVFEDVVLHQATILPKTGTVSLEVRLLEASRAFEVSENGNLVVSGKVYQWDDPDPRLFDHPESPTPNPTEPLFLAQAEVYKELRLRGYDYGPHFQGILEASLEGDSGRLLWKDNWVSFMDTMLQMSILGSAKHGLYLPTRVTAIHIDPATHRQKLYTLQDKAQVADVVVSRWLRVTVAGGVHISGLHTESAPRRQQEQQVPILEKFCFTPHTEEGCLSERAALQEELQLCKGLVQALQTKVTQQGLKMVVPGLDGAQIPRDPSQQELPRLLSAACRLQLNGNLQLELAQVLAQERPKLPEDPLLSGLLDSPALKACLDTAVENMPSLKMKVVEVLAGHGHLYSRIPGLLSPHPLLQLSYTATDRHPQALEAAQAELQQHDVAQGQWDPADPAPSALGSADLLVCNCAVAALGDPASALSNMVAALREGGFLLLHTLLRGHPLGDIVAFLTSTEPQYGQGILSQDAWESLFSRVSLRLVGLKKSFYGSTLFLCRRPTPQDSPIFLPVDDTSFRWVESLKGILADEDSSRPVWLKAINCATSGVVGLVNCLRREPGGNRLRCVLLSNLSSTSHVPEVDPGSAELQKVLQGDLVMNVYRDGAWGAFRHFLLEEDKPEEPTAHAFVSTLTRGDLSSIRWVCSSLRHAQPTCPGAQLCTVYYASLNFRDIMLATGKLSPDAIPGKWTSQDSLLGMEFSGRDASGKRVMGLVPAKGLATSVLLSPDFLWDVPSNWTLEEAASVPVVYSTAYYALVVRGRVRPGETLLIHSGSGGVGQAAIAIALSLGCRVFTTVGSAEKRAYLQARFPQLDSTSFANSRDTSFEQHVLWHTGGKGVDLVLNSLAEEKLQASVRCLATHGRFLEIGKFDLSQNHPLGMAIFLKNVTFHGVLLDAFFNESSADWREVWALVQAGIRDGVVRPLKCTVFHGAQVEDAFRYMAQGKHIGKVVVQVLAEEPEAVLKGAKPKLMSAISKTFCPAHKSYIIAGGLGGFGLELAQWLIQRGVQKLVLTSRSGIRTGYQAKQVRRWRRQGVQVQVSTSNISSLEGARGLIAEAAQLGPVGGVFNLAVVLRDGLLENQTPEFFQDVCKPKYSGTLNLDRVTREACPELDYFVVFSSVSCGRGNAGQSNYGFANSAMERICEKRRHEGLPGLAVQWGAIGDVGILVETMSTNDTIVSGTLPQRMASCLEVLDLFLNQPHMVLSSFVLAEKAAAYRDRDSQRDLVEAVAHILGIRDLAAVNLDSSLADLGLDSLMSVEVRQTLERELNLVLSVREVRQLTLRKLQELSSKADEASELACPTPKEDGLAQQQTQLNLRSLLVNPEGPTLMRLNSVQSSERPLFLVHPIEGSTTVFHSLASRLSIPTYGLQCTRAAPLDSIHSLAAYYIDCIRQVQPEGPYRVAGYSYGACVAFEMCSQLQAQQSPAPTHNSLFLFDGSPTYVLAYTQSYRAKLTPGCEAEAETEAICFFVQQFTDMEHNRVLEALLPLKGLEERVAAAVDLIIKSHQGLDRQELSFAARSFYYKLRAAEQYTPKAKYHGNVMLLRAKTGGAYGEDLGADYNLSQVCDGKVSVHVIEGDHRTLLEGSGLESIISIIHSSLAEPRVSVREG
Method in brief: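 Scintillation proximity format: in-house full-length enzyme, 300 ng per well, pH 7.5 phosphate/DTT buffer, ³H-acetyl-CoA and malonyl-CoA. Emission counted on LEADseeker at 610 nm at least 24 h after stopping.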

A2780 ovarian cells [2] = assay: A2780 ovarian cell proliferation assay in lipid reduced medium, with palmitate (MTT); assay type: cell-based; conditions: Homo sapiens, A2780, 96 h; read-out: pIC50 A2780 Ovarian Cell, With Palmitate (converted)
Method: (§1) The biological assays described below correspond to comparative assays for ovarian cell proliferation. […] Compounds active in the absence of palmitate would not be expected to be active in the control.
(§2) 2500 cells were seeded in a 96-well clear well plate in 200 μL RPMI1640 with 10% Fetal Calf Serum (Hyclone), and incubated at 37° C., 5% CO2. Blanks were wells without cells. The next day the culture medium was aspirated and replaced by 160 μL culture medium with 10% Lipid-Reduced Serum (LRS, Hyclone). 20 μL test compound (at concentrations of 30 μM, 10 μM, 3 μM, 1 μM, 0.30 μM, 0.10 μM, 0.03 μM and 0.01 μM)/DMSO dilution followed by 20 μL palmitate-BSA solution were added to a final concentrations of 0.2% DMSO, 25 μM palmitate (Sigma, P0500, 10 mM stock solution in ethanol) 0.2% fatty-acid-free BSA, 0.25% ethanol. After 96 h incubation, an MTT assay was performed. The absorbance was measured at 544 nm on a SPECTRAMAX brand microplate reader (Molecular Devices).
A best fit curve was fitted by a minimum sum of squares method, plotting Controlmin versus test compound concentration.
(§3) Representative compounds of the present invention were tested according to the procedure as described in Biological Example 3 above, with results as listed in Table 8, below.

A2780 ovarian cells [3] = assay: A2780 ovarian cell proliferation assay in lipid reduced medium, without palmitate (MTT); assay type: cell-based; conditions: Homo sapiens, A2780, 96 h; read-out: pIC50 A2780 Ovarian Cell, Without Palmitate (converted)
Method: as §1
as §2, with “ethanol-BSA” for “palmitate-BSA”, “DMSO,” for “DMSO, 25 μM palmitate (Sigma, P0500, 10 mM stock solution in ethanol)”, “incubation” for “incubation,”
where mLC and mHC were the means of the low control wells and high control wells on the plate, after manual exclusion of outliers. A plot of Controlmin versus test compound concentration was fitted to a 4-parameter logistic curve using a non-linear least squares regression method.
as §3

SMILES	inhibition at 10 µM [1]	IC50 [1]	IC50 (A2780 ovarian cells [2])	IC50 (A2780 ovarian cells [3])
O=C(C1CC1)N1CC[C@@H](CN2C(=O)C3(CC3)N=C2c2ccc(-c3ccc(-c4cccnc4)cc3)cc2)C1 [compound 122, 6-{[(3R)-1-(Cyclopropylcarbonyl)pyrrolidin-3-yl]methyl}-5-(4′-pyridin-3-ylbiphenyl-4-yl)-4,6-diazaspiro[2.4]hept-4-en-7-one]	112%	123 nM	~10 µM	234 nM
Cn1ncc2cc(-c3ccc(C4=NC5(CCN(CCO)CC5)C(=O)N4C[C@@H]4CCN(C(=O)C5CC5)C4)cc3)ccc21 [compound 127, (R)-3-((1-(Cyclopropanecarbonyl)pyrrolidin-3-yl)methyl)-8-(2-hydroxyethyl)-2-(4-(1-methyl-1H-indazol-5-yl)phenyl)-1,3,8-triazaspiro[4.5]dec-1-en-4-one]	107%	490 nM	7.59 µM	933 nM
O=C(C1CC1)N1CC[C@@H](CN2C(=O)C3(CCNCC3)N=C2c2ccc(-c3ccc4occc4c3)cc2)C1 [compound 133, 2-[4-(1-Benzofuran-5-yl)phenyl]-3-{[(3R)-1-(cyclopropylcarbonyl)pyrrolidin-3-yl]methyl}-1,3,8-triazaspiro[4.5]dec-1-en-4-one]	99.1%	447 nM	> 10 µM	~3160 nM
Cn1cc(-c2ccc(-c3ccc(C4=NC5(CC5)C(=O)N4C[C@@H]4CCN(C(=O)C5(C)CC5)C4)c(F)c3)cc2)cn1 [compound 364, (R)-5-(3-fluoro-4′-(1-methyl-1H-pyrazol-4-yl)-[1,1′-biphenyl]-4-yl)-6-((1-(1-methylcyclopropanecarbonyl)pyrrolidin-3-yl)methyl)-4,6-diazaspiro[2.4]hept-4-en-7-one]	89%	57.5 nM	0.229 µM	~2.95 nM
COc1ccc2cc(-c3ccc(C4=NC5(CC5)C(=O)N4CC4CN(C(=O)C5(O)CC5)C4)c(F)c3)ccc2c1 [compound 366, 5-(2-fluoro-4-(6-methoxynaphthalen-2-yl)phenyl)-6-((1-(1-hydroxycyclopropanecarbonyl)azetidin-3-yl)methyl)-4,6-diazaspiro[2.4]hept-4-en-7-one]	89%	61.7 nM	0.562 µM	~5.62 nM
Cc1cc(-c2ccc3c(cnn3C)c2)ccc1C1=NC2(CC2)C(=O)N1CC1CN(C(=O)c2nccs2)C1 [compound 518, 5-[2-Methyl-4-(1-methyl-1H-indazol-5-yl)phenyl]-6-{[1-(1,3-thiazol-2-ylcarbonyl)azetidin-3-yl]methyl}-4,6-diazaspiro[2.4]hept-4-en-7-one]	62%	~4680 nM	~4.07 µM	~3980 nM
O=C(C1CC1)N1CC(CN2C(=O)C3(CC3)N=C2c2ccc(-c3ccc4c(cnn4C4CC4)c3)cc2F)C1 [compound 522, 6-{[1-(Cyclopropylcarbonyl)azetidin-3-yl]methyl}-5-[4-(1-cyclopropyl-1-indazol-5-yl)-2-fluorophenyl]-4,6-diazaspiro[2.4]hept-4-en-7-one]	79%	1660 nM	> 10 µM	2880 nM
O=C(C1CC1)N1CC(CN2C(=O)C3(CC3)N=C2c2ccc(-c3ccc4nn(CC5CC5)cc4c3)cc2F)C1 [compound 524, 6-{[1-(Cyclopropylcarbonyl)azetidin-3-yl]methyl}-5-{4-[2-(cyclopropylmethyl)-2H-indazol-5-yl]-2-fluorophenyl}-4,6-diazaspiro[2.4]hept-4-en-7-one]	73%	2090 nM	> 10 µM	4900 nM
CC(C)n1ccc2cc(-c3ccc(C4=NC5(CC5)C(=O)N4CC4CN(C(=O)C5CC5)C4)c(F)c3)ccc21 [compound 525, 6-{[1-(Cyclopropylcarbonyl)azetidin-3-yl]methyl}-5-{2-fluoro-4-[1-(1-methylethyl)-1H-indol-5-yl]phenyl}-4,6-diazaspiro[2.4]hept-4-en-7-one]	84%	1050 nM	> 10 µM	4900 nM
O=C(C1CC1)N1CC(CN2C(=O)C3(CC3)N=C2c2ccc(-c3ccc4c(cnn4CCO)c3)cc2F)C1 [compound 527, 6-{[1-(Cyclopropylcarbonyl)azetidin-3-yl]methyl}-5-{2-fluoro-4-[1-(2-hydroxyethyl)-1H-indazol-5-yl]phenyl}-4,6-diazaspiro[2.4]hept-4-en-7-one]	83%	1580 nM	> 10 µM	~1950 nM
O=C(C1CC1)N1CC(CN2C(=O)C3(CC3)N=C2c2ccc(-c3cc4ccccc4nc3O)cc2)C1 [compound 532, 6-{[1-(Cyclopropylcarbonyl)azetidin-3-yl]methyl}-5-[4-(2-hydroxyquinolin-3-yl)phenyl]-4,6-diazaspiro[2.4]hept-4-en-7-one]	58%	5370 nM	> 10 µM	> 10000 nM

Continued, values first:

inhibition at 10 µM [1]	IC50 [1]	IC50 (A2780 ovarian cells [2])	IC50 (A2780 ovarian cells [3])	SMILES
115%	91.2 nM	> 10 µM	2190 nM	O=C(C1CC1)N1CC[C@@H](CN2C(=O)C3(CCCC3)N=C2c2ccc(-c3ccc(Cl)cc3)cc2F)C1 [compound 121, 2-(4′-Chloro-3-fluorobiphenyl-4-yl)-3-{[(3R)-1-(cyclopropylcarbonyl)pyrrolidin-3-yl]methyl}-1,3-diazaspiro[4.4]non-1-en-4-one]
113%		> 10 µM	~288 nM	CN(C)c1ccc(-c2ccc(C3=NC4(CC4)C(=O)N3C[C@@H]3CCN(C(=O)C4CC4)C3)cc2)cc1 [compound 124, 6-{[(3R)-1-(Cyclopropylcarbonyl)pyrrolidin-3-yl]methyl}-5-[4′-(dimethylamino)biphenyl-4-yl]-4,6-diazaspiro[2.4]hept-4-en-7-one]
96.3%	646 nM	> 10 µM	> 10000 nM	O=C(C1CC1)N1CC[C@@H](CN2C(=O)C3(CC3)N=C2c2ccc(-c3cccc(C(F)(F)F)c3)cc2)C1 [compound 126, 6-{[(3R)-1-(Cyclopropylcarbonyl)pyrrolidin-3-yl]methyl}-5-[3′-(trifluoromethyl)biphenyl-4-yl]-4,6-diazaspiro[2.4]hept-4-en-7-one]
91.7%	562 nM	> 10 µM	4470 nM	O=C(C1CC1)N1CCC2(CC1)N=C(c1ccc(-c3ccc4occc4c3)cc1)N(CC1CN(C(=O)C3CC3)C1)C2=O [compound 134, 2-[4-(1-Benzofuran-5-yl)phenyl]-8-(cyclopropylcarbonyl)-3-{[1-(cyclopropylcarbonyl)azetidin-3-yl]methyl}-1,3,8-triazaspiro[4.5]dec-1-en-4-one]
112%	178 nM	~6.03 µM	~851 nM	CC(C)C(=O)N1CCC2(CC1)N=C(c1ccc(-c3ccc4cnccc4c3)cc1)N(CC1CN(C(=O)C3CC3)C1)C2=O [compound 137, 3-{[1-(Cyclopropylcarbonyl)azetidin-3-yl]methyl}-2-(4-isoquinolin-6-ylphenyl)-8-(2-methylpropanoyl)-1,3,8-triazaspiro[4.5]dec-1-en-4-one]
94%	39.8 nM	~1.51 µM	~6.46 nM	CC1(C(=O)N2CC[C@@H](CN3C(=O)C4(CC4)N=C3c3ccc(-c4ccc5cc(F)ccc5c4)cc3F)C2)CC1 [compound 363, (R)-5-(2-fluoro-4-(6-fluoronaphthalen-2-yl)phenyl)-6-((1-(1-methylcyclopropancecarbonyl)pyrrolidin-3-yl)methyl)-4,6-diazaspiro[2.4]hept-4-en-7-one]
54%	7590 nM	> 10 µM	> 10000 nM	N#CCCn1ncc2cc(-c3ccc(C4=NC5(CC5)C(=O)N4CC4CN(C(=O)C5CC5)C4)cc3)ccc21 [compound 533, 3-{5-[4-(6-{[1-(Cyclopropylcarbonyl)azetidin-3-yl]methyl}-7-oxo-4,6-diazaspiro[2.4]hept-4-en-5-yl)phenyl]-1H-indazol-1-yl}propanenitrile]
